Measured values: patent US20050228180A1, “Alpha, omega-dicarboximide derivatives as useful uro-selective a1a adrenoceptor blockers” (priority 2002, published 2005)
Structures can show the parent of a compound that is named as a salt.

Columns and labels:
[1] = target: T1, α1B adrenoceptor (spleen) (Rattus norvegicus, UniProt P15823); experiment: In vitro functional assay, isolated spleen, phenylepinephrine contraction; assay type: cell-based; conditions: read-out: α Adrenoceptor Subtype (pKB) α1B (converted)
T1 construct: Isolated tissues were mounted in organ bath containing Krebs Henseleit buffer; from tissue; host or cells: isolated rat spleen
T1 sequence (P15823 1-515): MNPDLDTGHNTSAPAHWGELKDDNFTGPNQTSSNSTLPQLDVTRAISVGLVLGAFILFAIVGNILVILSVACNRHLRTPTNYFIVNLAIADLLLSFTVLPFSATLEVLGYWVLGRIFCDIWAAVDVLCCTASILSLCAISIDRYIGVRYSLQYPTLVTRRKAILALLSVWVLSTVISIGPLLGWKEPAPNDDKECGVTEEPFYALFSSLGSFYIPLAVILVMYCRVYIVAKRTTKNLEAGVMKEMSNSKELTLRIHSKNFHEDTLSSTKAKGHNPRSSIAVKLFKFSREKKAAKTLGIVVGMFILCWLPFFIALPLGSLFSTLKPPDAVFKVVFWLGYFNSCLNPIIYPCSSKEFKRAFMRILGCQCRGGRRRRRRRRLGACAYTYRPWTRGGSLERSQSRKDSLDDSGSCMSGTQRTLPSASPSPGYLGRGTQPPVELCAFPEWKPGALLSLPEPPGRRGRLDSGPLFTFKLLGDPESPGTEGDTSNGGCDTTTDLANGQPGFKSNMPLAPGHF
Procedure, shortened: (§1)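 Rat aorta, spleen and prostate strips from urethane-anaesthetised male Wistar rats in Krebs-Henseleit at 37 °C (95% O2/5% CO2), 2 g or 1 g resting tension, 2 h equilibration. Norepinephrine (aorta) or phenylephrine (spleen, prostate) contraction curves run without and with compound at […]; antagonist affinity given as pKB.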

α1D adrenoceptor (aorta) = target: T2, α1D adrenoceptor (aorta) (Rattus norvegicus, UniProt P23944); experiment: In vitro functional assay, isolated aorta, norepinephrine contraction; assay type: cell-based; conditions: read-out: α Adrenoceptor Subtype (pKB) α1D (converted)
T2 construct: Isolated tissues were mounted in organ bath containing Krebs Henseleit buffer; from tissue; host or cells: isolated rat aorta
T2 sequence (P23944 1-561): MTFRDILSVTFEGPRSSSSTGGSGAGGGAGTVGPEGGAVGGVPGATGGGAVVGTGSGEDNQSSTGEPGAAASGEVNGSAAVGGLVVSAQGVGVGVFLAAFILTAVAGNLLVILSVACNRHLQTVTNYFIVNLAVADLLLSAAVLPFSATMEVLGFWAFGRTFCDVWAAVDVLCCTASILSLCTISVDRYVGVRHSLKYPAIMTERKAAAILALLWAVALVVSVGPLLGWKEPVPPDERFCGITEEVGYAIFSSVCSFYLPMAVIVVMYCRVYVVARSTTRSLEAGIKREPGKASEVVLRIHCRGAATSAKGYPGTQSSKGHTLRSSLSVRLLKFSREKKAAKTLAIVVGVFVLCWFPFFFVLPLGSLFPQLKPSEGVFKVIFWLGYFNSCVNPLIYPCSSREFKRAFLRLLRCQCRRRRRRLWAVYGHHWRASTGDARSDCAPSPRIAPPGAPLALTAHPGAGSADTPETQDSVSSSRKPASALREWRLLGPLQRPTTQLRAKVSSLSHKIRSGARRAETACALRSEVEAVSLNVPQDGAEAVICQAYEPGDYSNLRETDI
Procedure, shortened: as §1

- Kb [1]: 7.41 nM
- Kb (α1D adrenoceptor (aorta)): 8.32 nM
Structure (SMILES): CC(C)Oc1ccccc1N1CCN(CCCN2C(=O)C3CC(O)C(O)CC3C2=O)CC1 (centres unmarked) [Compound No. 23, 2-[3-{4-(2-Isopropoxyphenyl)piperazin-1-yl}propyl]-5,6-dihydroxy-3a,4,5,6,7,7a, hexahydro-1H-isoindole-1,3(2H)-dione-hydrochloride]
